Experimental data: patent US20080063601A1, “Compositions and methods relating to polycystic kidney disease” (priority 2004, published 2008)

Experiments:
HeLa cells [1] = experiment: HeLa cell viability by trypan blue dye exclusion; format: cell-based
Experimental: Since extracellular calcium concentration can influence triptolide binding Applicant sought to determine if the presence of calcium influences the rate of triptolide-mediated apoptosis. To first establish the growth rate of HeLa in media±calcium, cell counts were performed over a 72 hour time course. Although calcium-free media caused cells to detach more easily, the overall growth rates were similar where cell doubling occurred every 24 hours on average (FIG. 5B). For triptolide experiments, cells were initially equilibrated in medium±calcium for 16 hours before the addition of 100 nM triptolide. Cell death was assessed by trypan blue dye exclusion at 24, 48, and 72 hours post drug treatment. In the presence of calcium-containing medium, triptolide induced at least 50% cell death by 24 hours with this trend continuing through later time points (FIG. 5C).
Applicant's results have implicated reversible binding of triptolide to a potential binding protein or complex that can be regulated by calcium. To understand if triptolide function is further separable between cell death and NFκB inhibition, Applicant examined the effect of concentration on these two endpoints. HeLa cells were cultured in the presence of 0, 10, 25, 50, or 100 nM of triptolide and separately assessed for cell death or the ability to suppress NFκB transactivation promoted by TNF-α. Following 24-48 hours of culture, viable cells were recovered and counted. Following 24 hours, triptolide concentrations from 25-100 nM caused greater than 50% of the cells to undergo cell death as assessed by detachment, clumping and the failure to exclude trypan blue dye. […] This is consistent with previous studies showing that low doses of triptolide cause cell cycle arrest rather than apoptosis (Kiviharju, et al., 2002, Clin Cancer Res 8, 2666-2674).
Based upon Applicant's studies examining the concentration dependent effect of triptolide on the two measured biological endpoints, cell death and transcriptional repression, Applicant wanted to determine how modulating triptolide's structure may also discriminate between the two pathways. For cell viability assays, HeLa cells were incubated with 0, 0.1, 1, or 10 μM of each analog or triptolide for 24 hours and then counted using trypan blue dye exclusion. […] NFκB transcriptional inhibition was measured using the κB-luciferase assay as previously described following 5 hours of incubation with each analog (0-10 μM) and TNF-α addition.
HeLa cells were incubated in DMEM or SMEM (Gibco) media+10% FBS and maintained at 37° C. in 5% CO2 for all experiments. HeLa cell viability was assessed by trypan blue dye exclusion, as well as by morphological examination (non-viable cells were rounded and detached from culture plate).

HeLa cells [2] = experiment: [3H]-triptolide saturation (specific) binding in HeLa cells; conditions: 0-100 nM [3H]-triptolide 1 h, non-specific binding with 2 μM cold triptolide, read-out: [3H]-triptolide binding affinity (KD), specific binding
Experimental: Based upon the data above, Applicant next sought to determine if triptolide binding was saturable and if more than one protein (or binding site) was being targeted. Determination of the [^3H]-triptolide binding affinity (KD) and the binding capacity per cell (Bmax) were calculated using a saturation plot. HeLa cells were cultured to 90% confluency and subsequently treated with 0-100 nM of [^3H]-triptolide for one hour. Non-specific binding was defined using 2 μM cold triptolide as competitor. Bmax was calculated to be 99±19 fmol triptolide bound/[…] of triptolide binding sites.
Saturation binding assays were accomplished in HeLa cells adhered on 6-well plates in DMEM+10% FBS. All samples were at least 90% confluent at time of addition of triptolide. Non-specific binding of [^3H]-triptolide was assessed by the pre-incubation of 2 μM (non-labeled) triptolide for one hour. Following cold competition (or DMSO) 5, 10, 20, 50, or 100 nM of [^3H]-triptolide was added into the cultures for an additional one hour, and then cells were lysed and counted for binding activity.

CC(C)[C@]12O[C@H]1[C@@H]1O[C@]13[C@]1(O[C@H]1C[C@H]1C4=C(CC[C@@]13C)C(=O)OC4)[C@@H]2O [triptolide]
minimal incubation time required for commitment to apoptosis (HeLa cells [1]): three to four hours
effect on cell proliferation and cell death (HeLa cells [1]; 10 nM, 48 hours): inhibited cell proliferation but did not induce cell death
cell death (HeLa cells [1]; 0.1 μM, 24 hours): 60%
cell death (HeLa cells [1]; 0.1 μM, 24 hours, listed as Triptolide): greater than 50%
cells died (HeLa cells [1]; 100 nM, calcium free media, 72 hours): 35%
cell death (HeLa cells [1]; 100 nM, calcium-containing medium, by 24 hours): at least 50%
cells undergoing cell death (HeLa cells [1]; 25-100 nM, 24 hours): greater than 50%
cells died (HeLa cells [1]; 25-100 nM, 48 hours): nearly all cells
Kd (HeLa cells [2]): 15.5 ± 0.8 nM
